The supplement of paper PMC10307832

Assays:
Experiment in all cases: relative viability (nuclei count vs DMSO), 5 days (fraction); higher = more cells survive
NCI-H2228 = tested on: NCI-H2228
Procedure, shortened: (§1)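 Relative viability divides the nuclei count in treated wells by that in vehicle wells. Lung cancer cell lines were seeded in 1536-well plates, dosed by pin tool the next day, and fixed and stained after 5 days in one step with final 0.05% Triton X-100, 1% formaldehyde and 1 ug/ml Hoechst. Dosing was a single drug or a fixed anchor-drug dose plus five library-drug doses (not always all listed) in √10 steps, and values are medians of duplicate plates imaged at 4×.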

SW 1573 = tested on: SW 1573
Procedure, shortened: as §1

HOP-62 = tested on: HOP-62
Procedure, shortened: as §1

NCI-H2126 = tested on: NCI-H2126
Procedure, shortened: as §1

NCI-H1792 = tested on: NCI-H1792
Procedure, shortened: as §1

LOU-NH91 = tested on: LOU-NH91
Procedure, shortened: as §1

NCI-H647 = tested on: NCI-H647
Procedure, shortened: as §1

NCI-H1975 = tested on: NCI-H1975
Procedure, shortened: as §1

LC-2-ad = tested on: LC-2-ad
Procedure, shortened: as §1

NCI-H460 = tested on: NCI-H460
Procedure, shortened: as §1

SK-LU-1 = tested on: SK-LU-1
Procedure, shortened: as §1

NCI-H1734 = tested on: NCI-H1734
Procedure, shortened: as §1

PC-3 [JPC-3] = tested on: PC-3 [JPC-3]
Procedure, shortened: as §1

HCC-15 = tested on: HCC-15
Procedure, shortened: as §1

A-427 = tested on: A-427
Procedure, shortened: as §1

HCC-78 = tested on: HCC-78
Procedure, shortened: as §1

NCI-H1915 = tested on: NCI-H1915
Procedure, shortened: as §1

NCI-H1755 = tested on: NCI-H1755
Procedure, shortened: as §1

RERF-LC-KJ = tested on: RERF-LC-KJ
Procedure, shortened: as §1

NCI-H358 = tested on: NCI-H358
Procedure, shortened: as §1

LXF-289 = tested on: LXF-289
Procedure, shortened: as §1

NCI-H2347 = tested on: NCI-H2347
Procedure, shortened: as §1

CC1(C)CCC(c2ccc(Cl)cc2)=C(CN2CCN(c3ccc(C(=O)NS(=O)(=O)c4ccc(N[C@H](CCN5CCOCC5)CSc5ccccc5)c(S(=O)(=O)C(F)(F)F)c4)cc3)CC2)C1 [Navitoclax] + CS(=O)(=O)CCNCc1ccc(-c2ccc3ncnc(Nc4ccc(OCc5cccc(F)c5)c(Cl)c4)c3c2)o1 [Lapatinib] (partner 2 µM)
relative viability (NCI-H2228; first compound 0.005 µM): 1.09 | relative viability (NCI-H2228; first compound 0.01581 µM): 0.9 | relative viability (NCI-H2228; first compound 0.05 µM): 1.14 | relative viability (NCI-H2228; first compound 0.1581 µM): 0.893 | relative viability (NCI-H2228; first compound 0.5 µM): 1.03 | relative viability (SW 1573; first compound 0.005 µM): 1.22 | relative viability (SW 1573; first compound 0.01581 µM): 1.08 | relative viability (SW 1573; first compound 0.05 µM): 1.01 | relative viability (SW 1573; first compound 0.1581 µM): 1.04 | relative viability (SW 1573; first compound 0.5 µM): 1.09 | relative viability (HOP-62; first compound 0.005 µM): 0.924 | relative viability (HOP-62; first compound 0.01581 µM): 1.12 | relative viability (HOP-62; first compound 0.05 µM): 0.777 | relative viability (HOP-62; first compound 0.1581 µM): 0.947 | relative viability (HOP-62; first compound 0.5 µM): 0.972 | relative viability (NCI-H2126; first compound 0.005 µM): 0.784 | relative viability (NCI-H2126; first compound 0.01581 µM): 0.757 | relative viability (NCI-H2126; first compound 0.05 µM): 0.739 | relative viability (NCI-H2126; first compound 0.1581 µM): 0.729 | relative viability (NCI-H2126; first compound 0.5 µM): 0.702 | relative viability (NCI-H1792; first compound 0.005 µM): 0.901 | relative viability (NCI-H1792; first compound 0.01581 µM): 1.05 | relative viability (NCI-H1792; first compound 0.05 µM): 0.662 | relative viability (NCI-H1792; first compound 0.1581 µM): 0.938 | relative viability (NCI-H1792; first compound 0.5 µM): 0.878 | relative viability (LOU-NH91; first compound 0.005 µM): 0.802 | relative viability (LOU-NH91; first compound 0.01581 µM): 0.858 | relative viability (LOU-NH91; first compound 0.05 µM): 0.756 | relative viability (LOU-NH91; first compound 0.1581 µM): 0.681 | relative viability (LOU-NH91; first compound 0.5 µM): 0.549 | relative viability (NCI-H647; first compound 0.005 µM): 0.888 | relative viability (NCI-H647; first compound 0.01581 µM): 1.05 | relative viability (NCI-H647; first compound 0.05 µM): 1.51 | relative viability (NCI-H647; first compound 0.1581 µM): 1.1 | relative viability (NCI-H647; first compound 0.5 µM): 0.918 | relative viability (NCI-H1975; first compound 0.005 µM): 0.859 | relative viability (NCI-H1975; first compound 0.01581 µM): 1.02 | relative viability (NCI-H1975; first compound 0.05 µM): 1.23 | relative viability (NCI-H1975; first compound 0.1581 µM): 0.8 | relative viability (NCI-H1975; first compound 0.5 µM): 0.893 | relative viability (LC-2-ad; first compound 0.005 µM): 0.936 | relative viability (LC-2-ad; first compound 0.01581 µM): 1.02 | relative viability (LC-2-ad; first compound 0.05 µM): 0.898 | relative viability (LC-2-ad; first compound 0.1581 µM): 1.01 | relative viability (LC-2-ad; first compound 0.5 µM): 0.96 | relative viability (NCI-H460; first compound 0.005 µM): 0.909 | relative viability (NCI-H460; first compound 0.01581 µM): 0.917 | relative viability (NCI-H460; first compound 0.05 µM): 1.09 | relative viability (NCI-H460; first compound 0.1581 µM): 0.892 | relative viability (NCI-H460; first compound 0.5 µM): 0.905 | relative viability (SK-LU-1; first compound 0.005 µM): 0.849 | relative viability (SK-LU-1; first compound 0.01581 µM): 1.12 | relative viability (SK-LU-1; first compound 0.05 µM): 0.886 | relative viability (SK-LU-1; first compound 0.1581 µM): 0.896 | relative viability (SK-LU-1; first compound 0.5 µM): 0.753 | relative viability (NCI-H1734; first compound 0.005 µM): 1.09 | relative viability (NCI-H1734; first compound 0.01581 µM): 1.16 | relative viability (NCI-H1734; first compound 0.1581 µM): 0.973 | relative viability (NCI-H1734; first compound 0.5 µM): 1.09 | relative viability (PC-3 [JPC-3]; first compound 0.005 µM): 0.403 | relative viability (PC-3 [JPC-3]; first compound 0.01581 µM): 0.438 | relative viability (PC-3 [JPC-3]; first compound 0.05 µM): 0.441 | relative viability (PC-3 [JPC-3]; first compound 0.1581 µM): 0.474 | relative viability (PC-3 [JPC-3]; first compound 0.5 µM): 0.487 | relative viability (HCC-15; first compound 0.005 µM): 0.814 | relative viability (HCC-15; first compound 0.01581 µM): 0.946 | relative viability (HCC-15; first compound 0.05 µM): 0.713 | relative viability (HCC-15; first compound 0.1581 µM): 0.813 | relative viability (HCC-15; first compound 0.5 µM): 0.836 | relative viability (A-427; first compound 0.005 µM): 1.05 | relative viability (A-427; first compound 0.01581 µM): 0.956 | relative viability (A-427; first compound 0.05 µM): 0.825 | relative viability (A-427; first compound 0.1581 µM): 1.05 | relative viability (A-427; first compound 0.5 µM): 1.06 | relative viability (HCC-78; first compound 0.005 µM): 0.704 | relative viability (HCC-78; first compound 0.01581 µM): 0.987 | relative viability (HCC-78; first compound 0.1581 µM): 0.75 | relative viability (HCC-78; first compound 0.5 µM): 0.76 | relative viability (NCI-H1915; first compound 0.005 µM): 0.915 | relative viability (NCI-H1915; first compound 0.01581 µM): 0.953 | relative viability (NCI-H1915; first compound 0.05 µM): 0.819 | relative viability (NCI-H1915; first compound 0.1581 µM): 0.862 | relative viability (NCI-H1915; first compound 0.5 µM): 0.868 | relative viability (NCI-H1755; first compound 0.005 µM): 1.04 | relative viability (NCI-H1755; first compound 0.01581 µM): 1.13 | relative viability (NCI-H1755; first compound 0.05 µM): 0.836 | relative viability (NCI-H1755; first compound 0.1581 µM): 0.984 | relative viability (NCI-H1755; first compound 0.5 µM): 1.02 | relative viability (RERF-LC-KJ; first compound 0.005 µM): 0.857 | relative viability (RERF-LC-KJ; first compound 0.01581 µM): 0.809 | relative viability (RERF-LC-KJ; first compound 0.05 µM): 0.75 | relative viability (RERF-LC-KJ; first compound 0.1581 µM): 0.852 | relative viability (RERF-LC-KJ; first compound 0.5 µM): 0.884 | relative viability (NCI-H358; first compound 0.005 µM): 0.481 | relative viability (NCI-H358; first compound 0.01581 µM): 0.601 | relative viability (NCI-H358; first compound 0.05 µM): 0.397 | relative viability (NCI-H358; first compound 0.1581 µM): 0.482 | relative viability (NCI-H358; first compound 0.5 µM): 0.583 | relative viability (LXF-289; first compound 0.005 µM): 0.9 | relative viability (LXF-289; first compound 0.01581 µM): 0.91 | relative viability (LXF-289; first compound 0.05 µM): 0.864 | relative viability (LXF-289; first compound 0.1581 µM): 0.901 | relative viability (LXF-289; first compound 0.5 µM): 0.902 | relative viability (NCI-H2347; first compound 0.005 µM): 0.957 | relative viability (NCI-H2347; first compound 0.01581 µM): 1.09 | relative viability (NCI-H2347; first compound 0.05 µM): 0.753 | relative viability (NCI-H2347; first compound 0.1581 µM): 0.765 | relative viability (NCI-H2347; first compound 0.5 µM): 0.923
